According to US20090065745A1, “ANTI-DEGRADATION AGENT” (priority 2005, published 2009):

Assay: Solubility in hexane (oil solubility)
Format: physicochemical
Conditions: at 30° C.
Text: However, the solubility in triglyceride of the compound varies depending upon constitutional fatty acids of the triglyceride. Therefore, in the present invention, the oil insolubility and oil solubility of the compound is defined by a solubility thereof in hexane.

| Compound | Solubility in hexane | Oil solubility class (solubility in hexane) |
| --- | --- | --- |
| tocopherol [Vitamin E (tocopherol)] | >500 mg/mL | Oil-soluble (oil-soluble antioxidant having a solubility in 1 L of hexane of not less than 50 g as measured at 30° C.) |

Assay: Measurement of dynamic hydration number (relaxation time T1)
Format: physicochemical
Conditions: at 25° C., in water
Text: First, the concept of the “dynamic hydration number” used in the present invention is explained. It is considered that the initial reaction of deterioration is caused at an “interface”, i.e., any of interfaces between gas and liquid, between liquid and solid and between liquid and liquid. In the case of almost all of foods, it is considered that the initial reaction of deterioration thereof is caused at an interface between oil and water. Here, if consideration is mainly made on the case where a configuration of the food is an aqueous system, water is generally classified into two types, i.e., liberated water and combined water. It is considered that among these waters, the liberated water frequently constitutes a factor relating to the initial reaction of deterioration.
The control of the liberated water can be realized by constraining a free motion of water molecules. The “dynamic hydration number” of the compound is an index showing a degree of constraint of free motion of water when the compound is dissolved in water. […] The dynamic hydration number of the compound may be readily measured, for example, by the following method.
25.0 mg of p-hydroxybenzoic acid was dissolved in pure water, and pure water was further added the resultant solution to obtain 50 mL of a solution (blank). The blank was added to samples used in amounts of 1.008 g and 1.512 g, respectively, to prepare sample solutions 1 and 2 having total weights of 4.013 g and 3.001 g, respectively. Using a spectrophotometer “Inova 500” manufactured by Varian Corp., the relaxation time (T1) of the respective sample solutions was measured at 25° C. to determine a dynamic hydration number thereof.

| Compound | Dynamic hydration number (nDHN) |
| --- | --- |
| O=C(CO)[C@@H](O)[C@H](O)[C@H](O)CO [Fructose] | 16.5 |
| NCCCC[C@H](N)C(=O)O [Lysine] | 3.0 |
| Maltotriol | 211 |

Now from value to compound:

| Dynamic hydration number (nDHN) | Compound |
| --- | --- |
| 15.0 | OC[C@H]1O[C@@](CO)(O[C@H]2O[C@H](CO)[C@@H](O)[C@H](O)[C@H]2O)[C@@H](O)[C@@H]1O [Sucrose] |
| 21.0 | CC(C)[C@H](N)C(=O)O [Valine] |
| 15.5 | O=C[C@H](O)[C@@H](O)[C@H](O)CO [Xylose] |
| 204 | Maltotriose |
